Experimental data: patent publication US20120258038A1, “USES OF APOPTOTIC CELL-TARGETING PEPTIDES, LABEL SUBSTANCES AND LIPOSOMES CONTAINING A THERAPEUTIC AGENT FOR PREVENTING, TREATING OR THERAPEUTICALLY DIAGNOSING APOPTOSIS-RELATED DISEASES” (Kyungpook National University Industry-Academic Cooperation …, priority 2009, published 2012)

Experiments:
[1] = tested on: apoptotic A549 cells; test: Competitive inhibition of binding to apoptotic cells by annexin V pre-treatment; format: cell-based, human
Experimental: In order to further investigate the binding properties of the inventive peptide (ApoPep-1) to apoptotic cells, competitive inhibition by annexin V was measured. For this, first, apoptotic A549 cells were pretreated with annexin V, not labeled with fluorescence, at concentrations of 0, 200 and 1000 μM. Then, after the cells were reacted with fluorescence-labeled annexin V under the same condition as described in Example <2-1>, the binding of the cells was observed under a fluorescence microscope.
Meanwhile, apoptotic A549 cells were pre-treated with annexin V, not labeled with fluorescence, at a concentration of 1000 μM. Then, after the cells were reacted with fluorescence-labeled peptide under the same condition as described in Example <2-1>, the binding of the cells was observed under a fluorescence microscope.

[2] = tested on: etoposide-treated apoptotic cells (A549, H460, HeLa, L132, RAW); test: Microscopic observation of binding of the peptide to apoptotic cells; format: cell-based; conditions: for labeling of etoposide-treated apoptotic cells: etoposide 50 μM; for labeling of etoposide-treated apoptotic cells / labeling of normal cells not treated with etoposide: fluorescence microscopy, fluorescein-labeled peptide 10 μM, alexa 594-labeled annexin V; for labeling of normal cells not treated with etoposide: 4° C., 1 hour
Experimental: Cells were cultured in a chamber slide (Nalgen Nunc), and treated with etoposide (Sigma) at a concentration of 50 μM for a given period of time to induce apoptosis (A549 and HeLa cells: for 15 hours, H460 cells: 24 hours, L132 cells: 3 hours, and RAW cells: 6 hours). The cells were cultured in RMPI-1640 medium (A549 and H460 cells) or DMEM medium (HeLa, L132 and RAW cells) containing antibiotics (penicillin and streptomycin) and 10% FBS. Meanwhile, all the cells were subcultured every 3 or 4 days. The apoptosis-induced apoptotic cells were washed with PBS, and blocked with 1% BSA at 37° C. for 30 minutes. Then, the cells were reacted with 10 μM of the peptide labeled with fluorescein, at 4° C. for 1 hour. After being washed, the cells were reacted with an annexin V reaction buffer solution containing alexa 594 (fluorescent reagent)-labeled annexin V (Molecular Probes) at room temperature for 15 minutes. The cells were washed with PBS, and then fixed with 4% paraformaldehyde for 5 minutes. Then, after counterstaining using the nuclear stain 4′,6-diamidino-2-phenylindole (DAPI), followed by treatment with a mounting solution (Molecular Probes), images of the cells were obtained under a fluorescence microscope (Zeiss).

[3] = tested on: A549 cells; test: FACS analysis of binding to apoptotic cells; format: cell-based, human; conditions: for percentage of cells bound/stained, early stage of apoptosis (fraction Q4) / percentage of cells bound/stained, later stage of apoptosis (fraction Q2): A549 cells treated with 50 μM etoposide for 15 hours, PI co-staining
Experimental: As another way of confirming the binding of the inventive peptide to apoptotic cells, apoptotic cells were treated with the inventive peptide labeled with fluorescein, and the binding was confirmed through FACS analysis. First, apoptosis was induced by treating A549 cells with 50 μM etoposide for 6 to 15 hours. The apoptotic cells or normal cells were reacted with the inventive ApoPep-1 peptide(5 μM) or a control peptide at the same concentration, labeled with fluorescein, at 4° C. for 1 hour. Meanwhile, the cells were reacted with fluorescein-labeled annexin V at room temperature for 15 minutes. After simultaneously staining the cells with propodium iodide (PI), followed by washing with PBS, FACS analysis was performed using a FACS instrument (Becton Dickinson).

Row | Molecule | binding of the peptide after pre-treatment with annexin V ([1]; annexin V not labeled with fluorescence, 1000 μM) | labeling of etoposide-treated apoptotic cells [2] | location of binding compared with annexin V (merged images) ([2]; etoposide-treated apoptotic cells) | labeling of normal cells not treated with etoposide [2] | binding to normal cells ([3]; A549 cells not treated with etoposide, 5 μM, fluorescein-labeled) | percentage of cells bound/stained, early stage of apoptosis (fraction Q4) [3] [%] | percentage of cells bound/stained, later stage of apoptosis (fraction Q2) [3] [%] | fluorescence of fluorescence-labeled annexin V after pre-treatment with annexin V not labeled with fluorescence ([1]; pre-treatment 0, 200 and 1000 μM, high concentration)
1 | CQRPPR (Apoptotic cell-targeting peptide, ApoPep-1) | not inhibited | labeling was observed | at the same locations | no labeling was observed | almost nonexistent | 90.3 | 7.2 | 
2 | annexin V: protein having a molecular weight of 36 kDa, binds to phosphatidylserine with strong affinity (protein, UniProt P08758 2-320, looked up) Annexin A5: AQVLRGTVTDFPGFDERADAETLRKAMKGLGTDEESILTLLTSRSNAQRQEISAAFKTLFGRDLLDDLKSELTGKFEKLIVALMKPSRLYDAYELKHALKGAGTNEKVLTEIIASRTPEELRAIKQVYEEEYGSSLEDDVVGDTSGYYQRMLVVLLQANRDPDAGIDEAQVEQDAQALFQAGELKWGTDEEKFITIFGTRSVSHLRKVFDKYMTISGFQIEETIDRETSGNLEQLLLAVVKSIRSIPAYLAETLYYAMKGAGTDDHTLIRVMVSRSEIDLFNIRKEFRKNFATSLYSMIKGDTSGDYKKALLLLCGEDD |  | labeling was observed |  | no labeling was observed |  | 64.3 | 9.4 | significantly decreased
